What all share (assay): competitive isoTOP-ABPP
What all share (format): binding
Common to all, as to conditions: 100 uM_231_sol_in vitro

Test [1] concerns the target T1, GTPBP3 tRNA modification GTPase GTPBP3, mitochondrial (Homo sapiens, UniProt Q969Y2).
T1 construct: isoTOP-ABPP experiments performed in cell lysates (in vitro); endogenous in cells; host or cells: soluble proteome of human cancer cell lines (MDA-MB-231; Ramos and Jurkat also prepared)
T1 sequence (Q969Y2 21-492): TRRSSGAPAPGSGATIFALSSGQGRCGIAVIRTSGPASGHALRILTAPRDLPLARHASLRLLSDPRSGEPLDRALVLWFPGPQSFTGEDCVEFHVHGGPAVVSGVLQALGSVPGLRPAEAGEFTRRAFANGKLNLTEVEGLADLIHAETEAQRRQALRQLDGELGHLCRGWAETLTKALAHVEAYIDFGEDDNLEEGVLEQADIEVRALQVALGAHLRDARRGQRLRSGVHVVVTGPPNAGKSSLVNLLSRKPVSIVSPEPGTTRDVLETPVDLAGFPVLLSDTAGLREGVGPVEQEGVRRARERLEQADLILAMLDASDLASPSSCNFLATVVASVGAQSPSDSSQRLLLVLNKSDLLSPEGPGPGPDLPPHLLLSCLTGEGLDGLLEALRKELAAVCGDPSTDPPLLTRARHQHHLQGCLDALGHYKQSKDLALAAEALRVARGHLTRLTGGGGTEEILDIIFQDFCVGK
In outline:
(§1)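 Cell lysate (0.5 ml) was pre-treated with fragment, 50 μM for activated esters or 100 μM for guanidinylating agents, versus DMSO, then labeled 1 h at ambient temperature with 0.1 mM STP-alkyne. Light/heavy TEV tags attached by CuAAC; R = DMSO/compound MS1 peak-area ratio, median per lysine.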

The target of test [2] is T2, RINT1 RAD50-interacting protein 1 (Homo sapiens, UniProt Q6NUQ1).
T2 construct: isoTOP-ABPP experiments performed in cell lysates (in vitro); endogenous in cells; host or cells: soluble proteome of human cancer cell lines (MDA-MB-231; Ramos and Jurkat also prepared)
In outline: as §1

In the next test the target is T3, CUL2 Cullin-2 (Homo sapiens, UniProt Q13617).
T3 construct: isoTOP-ABPP experiments performed in cell lysates (in vitro); endogenous in cells; host or cells: soluble proteome of human cancer cell lines (MDA-MB-231, Ramos, Jurkat)
In outline:
as §1

The target in test [3] is T4, GSTT2B Glutathione S-transferase theta-2B (Homo sapiens, UniProt P0CG30).
T4 construct: isoTOP-ABPP experiments performed in cell lysates (in vitro); endogenous in cells; host or cells: MDA-MB-231 soluble lysate
T4 sequence (P0CG30 1-244): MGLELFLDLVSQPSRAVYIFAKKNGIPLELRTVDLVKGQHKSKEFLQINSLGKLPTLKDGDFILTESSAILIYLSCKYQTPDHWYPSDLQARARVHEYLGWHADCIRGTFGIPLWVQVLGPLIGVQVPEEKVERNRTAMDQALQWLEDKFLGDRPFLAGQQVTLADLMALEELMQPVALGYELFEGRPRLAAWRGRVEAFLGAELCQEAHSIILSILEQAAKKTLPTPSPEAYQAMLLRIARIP
In outline:
as §1

The target of test [4] is T5, TRMT10C Mitochondrial ribonuclease P protein 1 (Homo sapiens, UniProt Q7L0Y3).
T5 construct: isoTOP-ABPP experiments performed in cell lysates (in vitro); endogenous in cells; host or cells: soluble proteome of human cancer cell lines (MDA-MB-231; Ramos and Jurkat also prepared)
T5 sequence (Q7L0Y3 40-403): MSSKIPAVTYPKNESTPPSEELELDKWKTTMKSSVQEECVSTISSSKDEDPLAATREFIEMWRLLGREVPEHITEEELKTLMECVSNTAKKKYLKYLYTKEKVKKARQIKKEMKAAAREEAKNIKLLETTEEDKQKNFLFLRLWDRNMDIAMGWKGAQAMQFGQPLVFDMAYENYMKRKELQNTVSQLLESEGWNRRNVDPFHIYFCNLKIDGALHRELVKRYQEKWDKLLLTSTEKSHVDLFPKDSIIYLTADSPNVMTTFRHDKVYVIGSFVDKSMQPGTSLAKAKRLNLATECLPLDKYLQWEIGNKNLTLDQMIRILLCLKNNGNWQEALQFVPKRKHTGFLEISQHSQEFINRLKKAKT
In outline: as §1

T2 sequence (Q6NUQ1 whole entry): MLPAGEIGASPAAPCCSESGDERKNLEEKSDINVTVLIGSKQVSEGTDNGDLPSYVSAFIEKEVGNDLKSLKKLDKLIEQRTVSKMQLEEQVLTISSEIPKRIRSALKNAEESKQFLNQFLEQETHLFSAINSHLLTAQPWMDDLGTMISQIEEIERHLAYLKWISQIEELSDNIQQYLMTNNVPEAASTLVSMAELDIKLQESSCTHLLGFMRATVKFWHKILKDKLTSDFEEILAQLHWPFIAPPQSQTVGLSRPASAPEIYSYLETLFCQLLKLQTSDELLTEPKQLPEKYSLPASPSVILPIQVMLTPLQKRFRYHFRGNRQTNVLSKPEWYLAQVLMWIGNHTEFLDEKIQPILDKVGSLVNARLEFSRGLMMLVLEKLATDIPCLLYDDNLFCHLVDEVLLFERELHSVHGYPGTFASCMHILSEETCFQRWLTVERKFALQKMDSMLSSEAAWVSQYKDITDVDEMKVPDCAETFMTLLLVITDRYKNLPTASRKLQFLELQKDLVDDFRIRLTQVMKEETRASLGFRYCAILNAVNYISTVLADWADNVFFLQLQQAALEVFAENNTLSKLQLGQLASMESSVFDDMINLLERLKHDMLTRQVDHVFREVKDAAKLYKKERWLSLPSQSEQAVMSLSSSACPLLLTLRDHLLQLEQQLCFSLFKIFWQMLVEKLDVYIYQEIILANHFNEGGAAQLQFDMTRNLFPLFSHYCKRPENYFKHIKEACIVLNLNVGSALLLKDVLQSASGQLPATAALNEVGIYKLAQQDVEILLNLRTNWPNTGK
T3 sequence (Q13617 whole entry): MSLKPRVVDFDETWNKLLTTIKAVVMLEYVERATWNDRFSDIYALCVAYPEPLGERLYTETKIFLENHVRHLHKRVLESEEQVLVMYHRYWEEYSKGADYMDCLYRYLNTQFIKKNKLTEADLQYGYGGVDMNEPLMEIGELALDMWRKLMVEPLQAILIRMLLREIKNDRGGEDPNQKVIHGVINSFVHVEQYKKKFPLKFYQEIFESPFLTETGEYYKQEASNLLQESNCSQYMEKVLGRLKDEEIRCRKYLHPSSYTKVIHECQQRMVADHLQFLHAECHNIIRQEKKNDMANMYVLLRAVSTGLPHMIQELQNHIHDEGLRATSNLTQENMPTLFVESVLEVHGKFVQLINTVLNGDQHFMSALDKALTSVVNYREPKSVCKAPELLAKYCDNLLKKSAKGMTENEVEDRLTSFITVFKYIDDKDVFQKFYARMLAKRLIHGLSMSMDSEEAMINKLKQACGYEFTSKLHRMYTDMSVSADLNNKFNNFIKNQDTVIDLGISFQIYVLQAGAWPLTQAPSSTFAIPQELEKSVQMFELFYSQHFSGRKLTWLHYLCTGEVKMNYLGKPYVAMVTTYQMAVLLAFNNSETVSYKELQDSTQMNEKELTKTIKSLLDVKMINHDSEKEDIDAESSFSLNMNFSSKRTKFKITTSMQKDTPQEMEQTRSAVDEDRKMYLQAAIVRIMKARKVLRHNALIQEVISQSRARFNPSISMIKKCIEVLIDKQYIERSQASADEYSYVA

Turning to `CC(C)(C)OC(=O)N=C(NC(=O)OC(C)(C)C)n1cccn1` [fragment 50, reference compound], the “isoTOP-ABPP ratio, lysine Q969Y2_K492” value in test [1] is 0.9. For the same molecule, the “isoTOP-ABPP ratio, lysine Q6NUQ1_K771” value in test [2] was determined as 1.1. The “isoTOP-ABPP ratio, lysine Q13617_K489” value at CUL2 Cullin-2 is given as 1.0. The “isoTOP-ABPP ratio, lysine P0CG30_K53” value in test [3] came out at 1.4. In addition, the “isoTOP-ABPP ratio, lysine Q7L0Y3_K325” value in test [4] is recorded as 6.2.
